This is an account of results in patent EP4644396A1 (Visionpharma (Nantong) Co., Ltd, priority 2022, dated 2024).

Where only a bound is given, the exact number is not on record here.

Usually IC50 stands for the concentration that inhibits the measured activity by half.

One test has as its target T1, human TLR8 (Homo sapiens, UniProt Q9NR97).
T1 construct: expressed in transfected cells
T1 sequence (Q9NR97 27-1041): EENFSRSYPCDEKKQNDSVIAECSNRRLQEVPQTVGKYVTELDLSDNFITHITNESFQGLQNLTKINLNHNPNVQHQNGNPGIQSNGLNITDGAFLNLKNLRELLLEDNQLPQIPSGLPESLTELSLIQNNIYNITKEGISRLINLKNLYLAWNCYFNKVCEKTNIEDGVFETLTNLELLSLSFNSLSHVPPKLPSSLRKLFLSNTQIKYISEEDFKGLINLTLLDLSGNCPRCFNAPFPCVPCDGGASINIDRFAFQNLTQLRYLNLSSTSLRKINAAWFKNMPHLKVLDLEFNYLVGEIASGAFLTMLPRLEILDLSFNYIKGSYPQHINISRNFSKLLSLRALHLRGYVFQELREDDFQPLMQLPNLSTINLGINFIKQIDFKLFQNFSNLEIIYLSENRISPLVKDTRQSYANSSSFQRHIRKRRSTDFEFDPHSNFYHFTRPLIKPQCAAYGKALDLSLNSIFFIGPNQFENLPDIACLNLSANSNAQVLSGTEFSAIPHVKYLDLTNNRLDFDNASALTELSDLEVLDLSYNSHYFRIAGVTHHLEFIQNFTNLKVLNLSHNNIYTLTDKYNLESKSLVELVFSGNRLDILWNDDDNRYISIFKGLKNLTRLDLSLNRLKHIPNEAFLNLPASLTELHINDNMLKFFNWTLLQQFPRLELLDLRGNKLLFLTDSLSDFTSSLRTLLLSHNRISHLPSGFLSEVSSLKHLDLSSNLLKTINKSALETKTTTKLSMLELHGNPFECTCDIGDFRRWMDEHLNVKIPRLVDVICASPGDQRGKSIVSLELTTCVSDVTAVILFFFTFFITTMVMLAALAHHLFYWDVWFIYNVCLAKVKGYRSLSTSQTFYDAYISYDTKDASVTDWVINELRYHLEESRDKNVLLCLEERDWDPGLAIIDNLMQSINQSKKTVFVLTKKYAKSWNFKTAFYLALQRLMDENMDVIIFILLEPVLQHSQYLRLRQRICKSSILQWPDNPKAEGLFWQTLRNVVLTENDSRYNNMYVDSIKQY
The experiment in a line: HEK-Blue hTLR8 SEAP reporter gene inhibition assay. The class given is cell-based. Particulars: hTLR8 HEK-Blue cells, TLR8 ligand 10 µM, 20 hours, SEAP by Quanti-blue; class symbols; read-out: HEK-Blue hTLR8 IC50. How it is done: (§1) HEK-Blue cells with stable expression of human TLR7 or TLR8 were used in the evaluation of inhibitory activity of compounds in the present invention against TLR7 or TLR8, by using its ability to induce the SEAP reporting gene under the control of the fusion of IFN-β minimum promoters into five NF-κB and ap-1 binding sites, as follows: hTLR7 HEK-Blue cells (Invivogen, 80, 000 cells per well) or hTLR8 HEK-Blue cells (60, 000 cells per well) were added to a 96-well cell culture plate. A solution of the testing compounds were added to each well, with the final concentration of tested compounds in the medium ranged from 0.001 to 36 µM and the culture was incubated for 15 minutes. M5049 was used as positive controls in the testing.
(§2) Then a TLR7 ligand (Gardiquimod, purchased from MedChemExpress, with final concentration of ligand in cell culture medium kept at 10 µM) or a TLR8 ligand (purchased from MedChemExpress with final concentration in cell culture media at 10 µM) and the culture was incubated for 20 hours. According to the manufacturer's instructions, a HEK-Blue reagent Quanti-blue (Invivogen) was used to detect the SEAP levels in cell cultures. The half […] concentration or IC50 was calculated by using GraphPad Prism. […] Table 1: Activities of examples in this invention to hTLR7/8 in HEK-Blue Cells
For orientation: Reporter assays use an easily measured gene product as a stand-in for the process of interest.

The next test has as its target T2, human TLR7 (Homo sapiens, UniProt Q9NYK1).
T2 sequence (Q9NYK1 27-1049): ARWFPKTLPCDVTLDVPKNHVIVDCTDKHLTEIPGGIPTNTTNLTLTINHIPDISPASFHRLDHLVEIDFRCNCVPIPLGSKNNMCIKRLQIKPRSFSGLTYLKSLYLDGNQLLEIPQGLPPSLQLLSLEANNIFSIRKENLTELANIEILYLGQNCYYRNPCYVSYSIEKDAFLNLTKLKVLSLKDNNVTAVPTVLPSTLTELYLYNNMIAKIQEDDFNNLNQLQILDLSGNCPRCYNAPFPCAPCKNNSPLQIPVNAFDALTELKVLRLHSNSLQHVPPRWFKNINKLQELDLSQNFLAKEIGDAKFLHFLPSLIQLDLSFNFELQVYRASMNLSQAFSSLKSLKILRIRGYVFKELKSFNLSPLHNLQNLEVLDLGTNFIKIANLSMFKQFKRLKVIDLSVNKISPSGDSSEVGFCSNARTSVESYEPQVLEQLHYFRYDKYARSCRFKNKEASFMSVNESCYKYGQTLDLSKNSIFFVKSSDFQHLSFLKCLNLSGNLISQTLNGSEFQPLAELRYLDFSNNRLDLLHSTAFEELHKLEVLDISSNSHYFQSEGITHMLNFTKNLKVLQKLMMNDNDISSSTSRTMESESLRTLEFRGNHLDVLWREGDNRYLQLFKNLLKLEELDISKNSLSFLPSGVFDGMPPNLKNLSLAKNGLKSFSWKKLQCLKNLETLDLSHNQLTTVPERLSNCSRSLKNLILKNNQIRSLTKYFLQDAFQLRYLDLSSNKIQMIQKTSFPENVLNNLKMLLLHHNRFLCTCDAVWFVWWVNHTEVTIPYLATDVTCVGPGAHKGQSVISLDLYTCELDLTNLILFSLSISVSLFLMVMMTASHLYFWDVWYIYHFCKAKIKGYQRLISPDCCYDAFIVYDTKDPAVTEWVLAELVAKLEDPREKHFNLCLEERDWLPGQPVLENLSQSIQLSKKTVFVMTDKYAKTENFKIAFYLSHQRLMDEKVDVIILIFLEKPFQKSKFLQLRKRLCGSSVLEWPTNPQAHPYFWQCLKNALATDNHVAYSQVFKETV
The experiment in a line: HEK-Blue hTLR7 SEAP reporter gene inhibition assay. In kind it is cell-based. Particulars: hTLR7 HEK-Blue cells, TLR7 ligand Gardiquimod 10 µM, 20 hours, SEAP by Quanti-blue; class symbols; read-out: HEK-Blue hTLR7 IC50. How it is done:
as §1, §2

Take “3-((4R,9S)-2-(7-cyano-3-fluoropyrazolo[1,5-a]pyridin-4-yl)-4,9-dimethyl-1,2,3,4,9,10-hexahydropyrido[3',4':3,4]pyrazolo[1,5-a]pyrazin-8(7H)-yl)cyclobutane-1-carboxamide [Example I-164]”: the values for the IC50 at human TLR8 and at human TLR7 were over 100 nM and under 50 nM, respectively.

Consider “3-Fluoro-4-((4R,9S)-8-(2-((R)-3-fluoropyrrolidin-1-yl)-2-oxoethyl)-4,9-dimethyl-3,4,7,8,9,10-hexahydropyrido[3',4':3,4]pyrazolo[1,5-a]pyrazin-2(1H)-yl)pyrazolo[1,5-a]pyridine-7-carbonitrile [Example I-149]”, for which the half-inhibitory concentration (IC50) is over 100 nM on human TLR8 and under 50 nM on human TLR7.

For “3-Fluoro-4-((4R,9S)-8-(2-((S)-3-fluoropyrrolidin-1-yl)-2-oxoethyl)-4,9-dimethyl-3,4,7,8,9,10-hexahydropyrido[3',4':3,4]pyrazolo[1,5-a]pyrazin-2(1H)-yl)pyrazolo[1,5-a]pyridine-7-carbonitrile [Example I-153]”, the IC50 on human TLR8 was over 100 nM; on human TLR7, under 50 nM.

Turning to “4-((4R,9S)-4,9-dimethyl-8-(2-(4-methylpiperazin-1-yl)-2-oxoethyl)-3,4,7,8,9,10-hexahydropyrido[3',4':3,4]pyrazolo[1,5-a]pyrazin-2(1H)-yl)-3-fluoropyrazolo[1,5-a]pyridine-7-carbonitrile [Example I-128]”, the IC50 at human TLR8 was under 100 nM; at human TLR7, under 50 nM.

As to “4-((4R,9S)-8-(D-prolyl)-4,9-dimethyl-3,4,7,8,9,10-hexahydropyrido [3',4':3,4] pyrazolo [1,5-a]pyrazin-2(1H)-yl)-3-fluoropyrazolo[1,5-a]pyridine-7-carbonitrile [Example I-120]”, the IC50 at human TLR8 is under 100 nM; on human TLR7, over 50 nM.

With “4-((4R,9S)-8-(cyanomethyl)-4,9-dimethyl-3,4,7,8,9,10-hexahydropyrido[3',4':3,4] pyrazolo[1,5-a]pyrazin-2(1H)-yl)-3-fluoropyrazolo[1,5-a]pyridine-7-carbonitrile [Example I-124]”, the results for the IC50 on human TLR8 and at human TLR7 were under 100 nM and under 50 nM, respectively.

With `CC1Cc2nn3c(c2CN1)CN(c1ccc(C#N)n2ncc(F)c12)C[C@H]3C` (single isomer, unassigned) [Example I-11a], the half-maximal inhibitory concentration (IC50) at human TLR8 was under 100 nM; at human TLR7, under 50 nM.

Take `CC1Cc2nn3c(c2CN1)CN(c1ccc(C#N)n2ncc(F)c12)C[C@H]3C` (single isomer, unassigned) [Example I-11b]: the IC50 at human TLR8 is under 100 nM; at human TLR7, under 50 nM.

On to `C[C@@H]1CN(c2ccc(C#N)n3ncc(F)c23)Cc2c3c(nn21)CC(N)CC3` (single isomer, unassigned) [Example I-20a], for which the IC50 is under 100 nM at human TLR8 and under 50 nM at human TLR7.

Consider `C[C@@H]1CN(c2ccc(C#N)n3ncc(F)c23)Cc2c3c(nn21)CC(N)CC3` (single isomer, unassigned) [Example I-20b], for which the IC50 on human TLR8 was under 100 nM; at human TLR7, under 50 nM.

Take `CC1Cc2c(nn3c2CN(c2ccc(C#N)n4ncc(F)c24)C[C@H]3C)C(C)N1` (single isomer, unassigned) [Example I-59b]: the figures for the IC50 at human TLR8 and on human TLR7 were under 100 nM and under 50 nM, respectively.

`C[C@@H]1CN(c2ccc(C#N)n3ncc(F)c23)Cc2c3c(nn21)CC(C)(N)CC3` (single isomer, unassigned) [Example I-71a]: the values for the IC50 at human TLR8 and on human TLR7 were under 100 nM and under 50 nM, respectively.

As to `C[C@@H]1CN(c2ccc(C#N)n3ncc(F)c23)Cc2c3c(nn21)CC(C)(N)CC3` (single isomer, unassigned) [Example I-71b], the half-inhibitory concentration (IC50) is under 100 nM on human TLR8 and over 50 nM at human TLR7.

In the case of `C[C@@H]1CN(c2ccc(C#N)n3ncc(F)c23)Cc2c3c(nn21)CCC(C)(N)C3` (single isomer, unassigned) [Example I-80a], the IC50 on human TLR8 is over 100 nM; on human TLR7 it was over 50 nM.

Turning to `C[C@@H]1CN(c2ccc(C#N)n3ncc(F)c23)Cc2c3c(nn21)CCC(C)(N)C3` (single isomer, unassigned) [Example I-80b], the figures for the IC50 on human TLR8 and on human TLR7 were over 100 nM and over 50 nM, respectively.

`CC1Cc2c(nn3c2CN(c2ccc(C#N)n4ncc(F)c24)C[C@H]3C)C(C)N1` (single isomer, unassigned) [Example I-88a]: the values for the IC50 at human TLR8 and on human TLR7 were under 100 nM and under 50 nM, respectively.

Turning to `CC1Cc2c(nn3c2CN(c2ccc(C#N)n4ncc(F)c24)C[C@H]3C)C(C)N1` (single isomer, unassigned) [Example I-88b], the IC50 was over 100 nM at human TLR8 and under 50 nM at human TLR7.

With `C[C@@H]1CN(c2ccc(C#N)n3ncc(F)c23)Cc2c3c(nn21)CCNC3` [Example I-2, (R)-3-fluoro-4-(7-methyl-1,3,4,7,8,10-hexahydropyrido[4',3':3,4]pyrazolo[1,5-a]pyrazin-9(2H)-yl)pyrazolo[1,5-a]pyridine-7-carbonitrile], the figures for the half-inhibitory concentration (IC50) on human TLR8 and on human TLR7 were under 100 nM and under 50 nM, respectively.

As to `C[C@@H]1CN(c2ccc(C#N)n3ncc(F)c23)Cc2c3c(nn21)CNCC3` [Example I-5, (R)-3-fluoro-4-(4-methyl-3,4,7,8,9,10-hexahydropyrido[3',4':3,4]pyrazolo[1,5-a]pyrazin-2(1H)-yl)pyrazolo[1,5-a]pyridine-7-carbonitrile], the IC50 on human TLR8 was under 100 nM; on human TLR7, under 50 nM.

`C[C@@H]1CN(c2ccc(C#N)n3ncc(F)c23)Cc2c3c(nn21)CN(Cc1ncco1)[C@@H](C)C3` [Example I-133, 4-((4R,9S)-4,9-dimethyl-8-(oxazol-2-ylmethyl)-3,4,7,8,9,10-hexahydropyrido[3',4':3,4]pyrazolo[1,5-a]pyrazin-2(1H)-yl)-3-fluoropyrazolo[1,5-a]pyridine-7-carbonitrile]: at human TLR7, the IC50 was over 50 nM.
